Assay results published in US20110039770A1, “INHIBITORS OF PROTEIN KINASE C ISOFORMS AND USES THEREOF” (PHARMAGAP INC., priority 2005, published 2011).
Where a SMILES comes first, the peptide text is derived from it. The star is where a group is joined. PNA(A) = NCCN(CC(=O)*)C(=O)Cn1cnc2c(N)ncnc21

Assays:
[1] = target: PKC-α (Homo sapiens, UniProt P17252); experiment: Competition of PRE with PKC-α antibody binding on Western blot, Protocol A, IMR-32 lysate; set-up: endogenous PKC-α in (A) untreated human neuroblastoma (IMR-32) cells; endogenous in cells; host or cells: IMR-32 human neuroblastoma cells; details: IMR-32 cells
[2] = target: T1, PKC alpha (Homo sapiens, UniProt P17252); experiment: Kinase-Glo Luminescent Kinase Assay; format: biochemical; details: read-out: % Inhibition PKC-α
Description: (§1) Compounds TIM 10, 11, 13, 14, 15, and 18-22 (see Table 28) were tested for their ability to inhibit the activity of PKC-alpha, beta 1, delta and epsilon isoforms the Kinase-Glo™ Luminescent Kinase Assay (Promega, Cat # V6712/3/4) following the manufacturer's instructions.

[3] = target: PKC delta (Homo sapiens, UniProt Q05655); experiment: Kinase-Glo Luminescent Kinase Assay; format: biochemical; details: read-out: % Inhibition PKC-δ
Chain of PKC delta (Q05655 whole entry): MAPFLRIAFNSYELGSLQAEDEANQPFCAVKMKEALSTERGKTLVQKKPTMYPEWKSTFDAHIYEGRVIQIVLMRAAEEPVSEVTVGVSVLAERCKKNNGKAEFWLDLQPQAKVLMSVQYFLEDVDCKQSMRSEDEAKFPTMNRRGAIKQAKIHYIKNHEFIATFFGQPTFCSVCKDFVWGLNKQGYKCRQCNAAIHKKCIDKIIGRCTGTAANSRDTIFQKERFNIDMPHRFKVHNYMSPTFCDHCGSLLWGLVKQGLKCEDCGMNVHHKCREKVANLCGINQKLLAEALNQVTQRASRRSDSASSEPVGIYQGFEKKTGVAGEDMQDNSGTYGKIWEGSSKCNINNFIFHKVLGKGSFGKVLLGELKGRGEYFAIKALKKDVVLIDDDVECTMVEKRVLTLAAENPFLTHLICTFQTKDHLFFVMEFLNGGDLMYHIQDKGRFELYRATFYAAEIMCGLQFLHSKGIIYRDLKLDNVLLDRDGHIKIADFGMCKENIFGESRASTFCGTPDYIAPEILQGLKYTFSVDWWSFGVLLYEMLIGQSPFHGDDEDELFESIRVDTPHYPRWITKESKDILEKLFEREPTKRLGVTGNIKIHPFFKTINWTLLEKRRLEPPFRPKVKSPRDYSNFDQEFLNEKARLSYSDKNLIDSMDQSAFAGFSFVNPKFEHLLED
Description: as §1

[4] = Acute toxicity studies in mice (IV, topical, oral); format: in vivo, mouse
Description: Acute toxicity studies were performed on mice using three different delivery routes: IV (tail), topical and oral. […] The LD50 obtained from the IV study was determined to be 750 μg-1 mg per mouse. The “no observed adverse effect level” was determined to be 250 μg per mouse, approximately twice the concentration of TIM 10 provided to mice in the studies discussed above.

[5] = target: T2, PKC zeta (Homo sapiens, UniProt Q05513); experiment: PKC isoform protein levels in cancer cell lines after TIM 10 (Western blot); format: cell-based; set-up: endogenous in cells; details: 5 mM by pinocytic influx, 24 hrs
T2 sequence (Q05513 1-592): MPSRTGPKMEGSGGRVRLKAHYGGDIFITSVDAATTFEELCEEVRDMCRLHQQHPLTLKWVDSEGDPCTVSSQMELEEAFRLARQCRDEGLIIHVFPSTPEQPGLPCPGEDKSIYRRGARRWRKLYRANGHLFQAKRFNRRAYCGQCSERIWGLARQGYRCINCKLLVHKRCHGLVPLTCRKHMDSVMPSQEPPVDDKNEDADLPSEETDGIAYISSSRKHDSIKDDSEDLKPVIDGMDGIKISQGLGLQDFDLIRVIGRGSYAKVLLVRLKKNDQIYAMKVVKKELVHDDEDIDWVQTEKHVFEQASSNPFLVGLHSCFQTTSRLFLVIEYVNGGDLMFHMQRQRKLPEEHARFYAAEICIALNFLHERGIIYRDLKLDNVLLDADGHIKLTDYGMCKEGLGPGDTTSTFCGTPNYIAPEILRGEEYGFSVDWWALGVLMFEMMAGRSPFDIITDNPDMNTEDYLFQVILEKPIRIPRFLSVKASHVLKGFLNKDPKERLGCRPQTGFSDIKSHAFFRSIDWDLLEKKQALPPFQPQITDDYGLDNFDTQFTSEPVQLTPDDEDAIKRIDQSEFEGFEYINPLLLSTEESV
Description: (§2) The effect of compound TIM 10 on the levels of protein for various PKC isoforms was assessed as generally described below in the following human cancer cell lines: MDA MB-231 breast adenocarcinoma cells (ATCC HTB-26); T24 bladder transitional cell carcinoma (ATCC HTB-4); SKOV-3 ovary adenocarcinoma (ATCC HTB-77); MCF-7 breast adenocarcinoma (ATCC HTB-22); Capan-2 pancreatic adenocarcinoma (ATCC HTB-80); NCI-H661 NSCL large cells (ATCC HTB-183); Calu-6 probable lung anaplastic carcinoma (ATCC HTB-56) and Calu-3 lung adenocarcinoma (ATCC HTB-55).
(§3) Cells representative of the different cancer types were cultured according to ATCC instructions. At subconfluence, the cells were trypsinized and compound 10 (5 mM) was incorporated into the cells by pinocytic influx endocytosis according to the manufacturer's instructions (Molecular Probe). Matching controls were treated accordingly except that vehicle was incorporated instead of compound 10. Following pinocytic influx, the cells were seeded and allowed to grow in fresh medium for 24 hrs. The cell cultures were further extracted using RIPA lysis buffer according to standard protocol. The protein content of each lysate was measured using Bradford protein estimation procedure (BioRad) and normalized. Following addition of sample buffer, the proteins from 15 μl of each extract were separated by electrophoresis, electro-transferred to nitrocellulose membranes and the various isoforms of PKC were detected using appropriate antibodies (Santa Cruz Biotechnology, Inc., CA). The relative intensity of bands of the expected molecular weight was estimated after scanning and the % decrease in the band intensity relative to control was calculated.

[6] = target: T1, PKC alpha; experiment: as above; format: cell-based; set-up: endogenous in cells; host or cells: MDA MB-231, T24, SKOV-3, MCF-7, Capan-2, NCI-H661, Calu-6, Calu-3; details: 5 mM by pinocytic influx, 24 hrs
Description: as §2, §3

Question: Which results are given for `CC[C@H](C)[C@H](NC(=O)[C@H](CO)NC(=O)[C@@H](NC(=O)CNC(=O)[C@@H](NC(=O)[C@H](CC(C)C)NC(=O)[C@H](CC(N)=O)NC(=O)[C@H](CCC(N)=O)NC(=O)[C@H](C)NC(=O)[C@H](CC(=O)O)NC(=O)CNC(=O)CNC(=O)[C@H](CCCCN)NC(=O)[C@@H](NC(=O)[C@H](CCC(=O)O)NC(=O)[C@H](CCC(N)=O)NC(=O)[C@@H](NC(=O)CNC(=O)[C@H](CCCCN)NC(=O)[C@H](C)NC(C)=O)[C@@H](C)CC)C(C)C)[C@@H](C)CC)[C@@H](C)CC)C(N)=O` [PRE 3] (Ac-AKGIQEVKGGDAQNLIGISI-NH2)?
Answer: Band Intensity ([1]; 600 μg): 0.888; Band Intensity ([1]; 3.75 mg): 0.600; Band Intensity ([1]; 5.25 mg): 0.603; Band Intensity ([1]; 7.5 mg): 0.609

Question: For `CC[C@H](C)[C@H](NC(=O)[C@H](CO)NC(=O)[C@@H](NC(=O)CNC(=O)[C@@H](NC(=O)[C@H](CC(C)C)NC(=O)[C@H](CC(N)=O)NC(=O)[C@H](CCC(N)=O)NC(=O)[C@H](C)NC(=O)[C@H](CC(=O)O)NC(=O)[C@H](CCCCN)NC(=O)CNC(=O)CNC(=O)CNC(=O)CNC(=O)CNC(=O)CNC(=O)CNC(=O)[C@H](CC(C)C)NC(=O)[C@H](CCCNC(=N)N)NC(=O)[C@H](Cc1ccccc1)NC(=O)[C@H](CCCCNC(=O)CN(CCN)C(=O)Cn1cnc2c(N)ncnc21)NC(=O)[C@H](CCCNC(=N)N)NC(=O)[C@H](CCCNC(=N)N)NC(=O)[C@H](Cc1ccccc1)NC(C)=O)[C@@H](C)CC)[C@@H](C)CC)C(N)=O` [TIM 10] (Ac-FRRK(PNA(A))FRLGGGGGGGKDAQNLIGISI-NH2), which inhibition at 15 µM ([2]; 15.0 μM) is on record?
Answer: 31.4%

Question: What about the inhibition at 30 µM ([2]; 30.0 μM) of the same compound?
Answer: 28.6%

Question: And the inhibition at 15 µM ([3]; 15.0 μM)?
Answer: 15.8%

Question: And the inhibition at 30 µM ([3]; 30.0 μM)?
Answer: 22.1%

Question: And the “no observed adverse effect level” value ([4]; IV study)?
Answer: 250 μg per mouse

Question: And the toxic effects ([4]; topically or orally)?
Answer: No toxic effects were observed at any dose

Question: What about the “% decrease PKC-ζ band intensity relative to control” value ([5]; Capan-2) of the same compound?
Answer: 0.0%

Question: And the “% decrease PKC-ζ band intensity relative to control, Band 1” value ([5]; H661, Band 1)?
Answer: 13.4%

Question: And the “% decrease PKC-ζ band intensity relative to control, Band 2” value ([5]; H661, Band 2)?
Answer: 0.0%

Question: What about the “% decrease PKC-ζ band intensity relative to control” value ([5]; MCF-7) of the same compound?
Answer: 7.3%

Question: What about the “% decrease PKC-ζ band intensity relative to control” value ([5]; MDA-MB231) of the same compound?
Answer: 0.0%

Question: What about the “% decrease PKC-ζ band intensity relative to control” value ([5]; T24) of the same compound?
Answer: 0.0%

Question: And the “% decrease PKC-α band intensity relative to control” value ([6]; Calu-3)?
Answer: 21.8%

Question: What about the “% decrease PKC-α band intensity relative to control” value ([6]; Calu-6) of the same compound?
Answer: 57.8%

Question: What about the “% decrease PKC-α band intensity relative to control” value ([6]; Capan-2) of the same compound?
Answer: 53.4%

Question: And the “% decrease PKC-α band intensity relative to control” value ([6]; H661)?
Answer: 28.1%

Question: What about the “% decrease PKC-α band intensity relative to control” value ([6]; MCF-7) of the same compound?
Answer: 12.0%

Question: And the “% decrease PKC-α band intensity relative to control” value ([6]; MDA-MB231)?
Answer: 36.6%

Question: What about the “% decrease PKC-α band intensity relative to control” value ([6]; SK-OV-3) of the same compound?
Answer: 63.4%

Question: And the “% decrease PKC-α band intensity relative to control” value ([6]; T24)?
Answer: 42.5%
